Assay results reported in ChEMBL document CHEMBL1130486, “Novel 5-amino-6-methylquinolone antibacterials: A new class of non-6-fluoroquinolones” (1997).
In brackets after ≈: the same amount, converted by molar mass.

Tests used:
[1] = system: Pseudomonas aeruginosa; assay: In vitro minimum inhibitory concentration was determined for antibacterial activity against Pseudomonas aeruginosa 1012E strain.; assay type: functional
[2] = system: Micrococcus luteus; assay: In vitro minimum inhibitory concentration was determined for antibacterial activity against Micrococcus luteus ATCC 9341 strain.; assay type: functional
[3] = system: Klebsiella aerogenes; assay: In vitro minimum inhibitory concentration was determined for antibacterial activity against Klebsiella aerogenes 1082E strain.; assay type: functional
[4] = system: Staphylococcus epidermidis; assay: In vitro minimum inhibitory concentration was determined for antibacterial activity against Staphylococcus epidermis 178 strain.; assay type: functional
[5] = system: Staphylococcus aureus; assay: In vitro minimum inhibitory concentration was determined for antibacterial activity against Staphylococcus aureus 241 strain.; assay type: functional
[6] = system: Enterobacter cloacae; assay: In vitro minimum inhibitory concentration was determined for antibacterial activity against Enterobacter cloacae p99 strain.; assay type: functional
[7] = system: Escherichia coli; assay: In vitro minimum inhibitory concentration was determined for antibacterial activity against Escherichia coli 851E strain.; assay type: functional
[8] = system: Klebsiella aerogenes; assay: In vitro minimum inhibitory concentration was determined for antibacterial activity against Klebsiella aerogenes 1076E strain.; assay type: functional
[9] = system: Acinetobacter calcoaceticus; assay: In vitro minimum inhibitory concentration was determined for antibacterial activity against Acinetobacter calcoaceticus 15473 strain.; assay type: functional
[10] = system: Staphylococcus aureus; assay: In vitro minimum inhibitory concentration was determined for antibacterial activity against Staphylococcus aureus 77 strain.; assay type: functional
[11] = system: Staphylococcus aureus; assay: In vitro minimum inhibitory concentration was determined for antibacterial activity against Staphylococcus aureus giorgio strain.; assay type: functional
[12] = system: Bacillus subtilis; assay: In vitro minimum inhibitory concentration was determined for antibacterial activity against Bacillus subtilis ATCC 6633 strain.; assay type: functional
[13] = system: Escherichia coli; assay: In vitro minimum inhibitory concentration was determined for antibacterial activity against Escherichia coli TEM9 2639E strain.; assay type: functional
[14] = system: Citrobacter koseri; assay: In vitro minimum inhibitory concentration was determined for antibacterial activity against Citrobacter diversus 2046E strain.; assay type: functional
[15] = system: Escherichia coli; assay: In vitro minimum inhibitory concentration was determined for antibacterial activity against Escherichia coli TEM5 3739E strain.; assay type: functional
[16] = system: Staphylococcus aureus; assay: In vitro minimum inhibitory concentration was determined for antibacterial activity against Staphylococcus aureus 6538p strain.; assay type: functional
[17] = system: Enterococcus faecalis; assay: In vitro minimum inhibitory concentration was determined for antibacterial activity against […] 29212 strain.; assay type: functional
[18] = system: Pseudomonas aeruginosa; assay: In vitro minimum inhibitory concentration was determined for antibacterial activity against Pseudomonas aeruginosa 10145 strain.; assay type: functional
[19] = system: Escherichia coli; assay: In vitro minimum inhibitory concentration was determined for antibacterial activity against Escherichia coli 10536 strain; assay type: functional
[20] = system: Staphylococcus epidermidis; assay: In vitro minimum inhibitory concentration was determined for antibacterial activity against Staphylococcus epidermis 887E strain.; assay type: functional
[21] = system: Salmonella typhimurium; assay: In vitro minimum inhibitory concentration was determined for antibacterial activity against Salmonella Typhimurium 14028 strain.; assay type: functional, Salmonella enterica subsp. enterica serovar Typhimurium; conditions: Salmonella enterica
[22] = system: Escherichia coli; assay: In vitro minimum inhibitory concentration was determined for antibacterial activity against Escherichia coli 3190Y strain.; assay type: functional
[23] = system: Enterobacter cloacae; assay: In vitro minimum inhibitory concentration was determined for antibacterial activity against Enterobacter cloacae 1194E strain.; assay type: functional

Row | Structure (SMILES) | MIC [1] [µg/mL] | MIC [2] [µg/mL] | MIC [3] [µg/mL] | MIC [4] [µg/mL] | MIC [5] [µg/mL] | MIC [6] [µg/mL] | MIC [7] [µg/mL] | MIC [8] [µg/mL] | MIC [9] [µg/mL] | MIC [10] [µg/mL] | MIC [11] [µg/mL] | MIC [12] [µg/mL] | MIC [13] [µg/mL] | MIC [14] [µg/mL] | MIC [15] [µg/mL] | MIC [16] [µg/mL] | MIC [17] [µg/mL] | MIC [19] [µg/mL] | MIC [20] [µg/mL] | MIC [21] [µg/mL] | other results
1 | Cc1c(N2CCC(CN)C2)c(F)c2c(c1N)c(=O)c(C(=O)O)cn2C1CC1 (configuration not stated) | 1 (≈ 2.67 µM) | 4 (≈ 10.7 µM) | 0.13 (≈ 0.347 µM) | 16 (≈ 42.7 µM) | 8 (≈ 21.4 µM) | 0.031 (≈ 0.0828 µM) | 0.063 (≈ 0.168 µM) | 0.25 (≈ 0.668 µM) | 0.13 (≈ 0.347 µM) | 0.063 (≈ 0.168 µM) | 0.031 (≈ 0.0828 µM) | 0.016 (≈ 0.0427 µM) | 0.13 (≈ 0.347 µM) | 0.13 (≈ 0.347 µM) | 0.5 (≈ 1.34 µM) | 0.031 (≈ 0.0828 µM) | 0.25 (≈ 0.668 µM) | 0.031 (≈ 0.0828 µM) | 0.031 (≈ 0.0828 µM) | 0.13 (≈ 0.347 µM) | MIC [18]: 2 µg/mL (≈ 5.34 µM); MIC [22]: 0.016 µg/mL (≈ 0.0427 µM); MIC [23]: 0.031 µg/mL (≈ 0.0828 µM)
2 | Cc1c(N2CCNC(C)C2)c(F)c2c(c1N)c(=O)c(C(=O)O)cn2C1CC1 (configuration not stated) | 2 (≈ 5.34 µM) | 8 (≈ 21.4 µM) | 0.13 (≈ 0.347 µM) | 16 (≈ 42.7 µM) | 16 (≈ 42.7 µM) | 0.016 (≈ 0.0427 µM) | 0.063 (≈ 0.168 µM) | 0.25 (≈ 0.668 µM) | 0.13 (≈ 0.347 µM) | 0.5 (≈ 1.34 µM) | 0.25 (≈ 0.668 µM) | 0.063 (≈ 0.168 µM) | 0.063 (≈ 0.168 µM) | 0.063 (≈ 0.168 µM) | 0.5 (≈ 1.34 µM) | 0.5 (≈ 1.34 µM) | 2 (≈ 5.34 µM) | 0.063 (≈ 0.168 µM) | 0.25 (≈ 0.668 µM) | 0.13 (≈ 0.347 µM) | MIC [18]: 2 µg/mL (≈ 5.34 µM); MIC [22]: 0.016 µg/mL (≈ 0.0427 µM); MIC [23]: 0.13 µg/mL (≈ 0.347 µM)
3 | CC1COc2c(N3CCN(C)CC3)c(F)cc3c(=O)c(C(=O)O)cn1c23 (configuration not stated) [OFLOXACIN] |  | 2 (≈ 5.53 µM) | 0.13 (≈ 0.36 µM) | 32 (≈ 88.6 µM) | 64 (≈ 177 µM) | 0.031 (≈ 0.0858 µM) | 0.063 (≈ 0.174 µM) | 0.25 (≈ 0.692 µM) | 0.25 (≈ 0.692 µM) | 0.25 (≈ 0.692 µM) | 0.5 (≈ 1.38 µM) | 0.063 (≈ 0.174 µM) | 0.063 (≈ 0.174 µM) | 0.13 (≈ 0.36 µM) |  | 0.5 (≈ 1.38 µM) | 2 (≈ 5.53 µM) | 0.031 (≈ 0.0858 µM) | 0.25 (≈ 0.692 µM) | 0.13 (≈ 0.36 µM) | MIC [23]: 0.13 µg/mL (≈ 0.36 µM)
4 | Cc1c(N2CCNCC2)c(F)c2c(c1N)c(=O)c(C(=O)O)cn2C1CC1 | 1 (≈ 2.77 µM) | 4 (≈ 11.1 µM) | 0.031 (≈ 0.086 µM) | 16 (≈ 44.4 µM) | 16 (≈ 44.4 µM) | ≤ 0.008 | 0.031 (≈ 0.086 µM) | 0.25 (≈ 0.694 µM) | 0.13 (≈ 0.361 µM) | 0.5 (≈ 1.39 µM) | 0.25 (≈ 0.694 µM) | 0.031 (≈ 0.086 µM) | 0.031 (≈ 0.086 µM) | 0.063 (≈ 0.175 µM) | 0.5 (≈ 1.39 µM) | 0.25 (≈ 0.694 µM) | 4 (≈ 11.1 µM) | ≤ 0.008 | 0.13 (≈ 0.361 µM) | 0.063 (≈ 0.175 µM) | MIC [18]: 2 µg/mL (≈ 5.55 µM); MIC [22]: ≤ 0.008 µg/mL; MIC [23]: 0.063 µg/mL (≈ 0.175 µM)
5 | Cc1c(N2CCC(N)C2)c(F)c2c(c1N)c(=O)c(C(=O)O)cn2C1CC1 (configuration not stated) | 1 (≈ 2.77 µM) | 8 (≈ 22.2 µM) | 0.13 (≈ 0.361 µM) | 16 (≈ 44.4 µM) | 8 (≈ 22.2 µM) | 0.031 (≈ 0.086 µM) | 0.13 (≈ 0.361 µM) | 0.5 (≈ 1.39 µM) | 0.5 (≈ 1.39 µM) | 0.5 (≈ 1.39 µM) | 0.25 (≈ 0.694 µM) | 0.063 (≈ 0.175 µM) | 0.13 (≈ 0.361 µM) | 0.13 (≈ 0.361 µM) | 1 (≈ 2.77 µM) | 0.25 (≈ 0.694 µM) | 8 (≈ 22.2 µM) | 0.031 (≈ 0.086 µM) | 0.25 (≈ 0.694 µM) | 0.25 (≈ 0.694 µM) | MIC [18]: 4 µg/mL (≈ 11.1 µM); MIC [22]: 0.031 µg/mL (≈ 0.086 µM); MIC [23]: 0.25 µg/mL (≈ 0.694 µM)
6 | O=C(O)c1cn(C2CC2)c2cc(N3CCNCC3)c(F)cc2c1=O [CIPROFLOXACIN] | 0.13 (≈ 0.392 µM) | 4 (≈ 12.1 µM) | ≤ 0.008 | 128 (≈ 386 µM) | 128 (≈ 386 µM) |  |  | 0.13 (≈ 0.392 µM) | 0.25 (≈ 0.754 µM) | 0.25 (≈ 0.754 µM) | 0.25 (≈ 0.754 µM) |  |  | 0.016 (≈ 0.0483 µM) | 0.13 (≈ 0.392 µM) | 0.13 (≈ 0.392 µM) | 0.5 (≈ 1.51 µM) | ≤ 0.008 | 0.13 (≈ 0.392 µM) |  | MIC [22]: ≤ 0.008 µg/mL
